Source: US20120225062A1 (priority 2011, published 2012)

What was measured:
Pim 2 = Pim 2 (Homo sapiens, UniProt Q9P1W9); assay: Pim 2 AlphaScreen assay (high ATP)
[1] = test system: KMS11 (human myeloma cell line); assay: Cell Proliferation Assay (CellTiter-Glo, 3 days); format: cell-based; details: KMS-11, 72 h, KMS11-luc cells
How it was run: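 KMS11 myeloma cells, 2000 per well in IMDM with 10% FBS, exposed to compound for 3 days at 37° C. Viability read by CellTiter-Glo luminescence; EC50 derived.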

Pim 1 = Pim 1 (Homo sapiens, UniProt P11309); assay: Pim 1 AlphaScreen assay (high ATP)
Method: The activity of Pim 1, Pim 2, & Pim 3 is measured using a homogeneous bead based system quantifying the amount of phosphorylated peptide substrate resulting from kinase-catalyzed phosphoryl transfer to a peptide substrate. Compounds to be tested are dissolved in 100% DMSO and directly distributed to a white 384-well plate at 0.25 μl per well. […] This is followed by the addition of 5 μl/well of Pim 1, Pim 2 or Pim 3 kinase in assay buffer (concentrations described below). Final assay concentrations (described below) are in 2.5% DMSO. The reactions are performed for ˜2 hours, then stopped by the addition of 10 μl of 0.75 μg/ml anti-phospho Ser/Thr antibody (Cell Signaling), 10 μg/ml Protein A AlphaScreen beads (Perkin Elmer), and 10 μg/ml streptavidin coated AlphaScreen beads in stop/detection buffer (50 mM EDTA, 95 mM Tris, pH=7.5, 0.01% Tween-20). The stopped reactions are incubated overnight in the dark. The phosphorylated peptide is detected via an oxygen anion initiated chemiluminescence/fluorescence cascade using the Envision plate reader (Perkin Elmer).

Pim 3 = Pim 3 (Homo sapiens, UniProt Q86V86); assay: Pim 3 AlphaScreen assay (high ATP)

Chain of Pim 1 (P11309 whole entry): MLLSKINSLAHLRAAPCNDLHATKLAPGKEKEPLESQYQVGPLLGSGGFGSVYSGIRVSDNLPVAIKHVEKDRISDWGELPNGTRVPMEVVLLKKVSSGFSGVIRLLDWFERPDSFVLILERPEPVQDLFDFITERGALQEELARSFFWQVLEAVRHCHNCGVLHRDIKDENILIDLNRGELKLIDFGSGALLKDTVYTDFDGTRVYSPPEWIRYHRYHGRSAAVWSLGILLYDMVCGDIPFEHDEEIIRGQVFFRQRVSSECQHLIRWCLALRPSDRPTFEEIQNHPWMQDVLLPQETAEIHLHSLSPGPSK
Chain of Pim 2 (Q9P1W9 whole entry): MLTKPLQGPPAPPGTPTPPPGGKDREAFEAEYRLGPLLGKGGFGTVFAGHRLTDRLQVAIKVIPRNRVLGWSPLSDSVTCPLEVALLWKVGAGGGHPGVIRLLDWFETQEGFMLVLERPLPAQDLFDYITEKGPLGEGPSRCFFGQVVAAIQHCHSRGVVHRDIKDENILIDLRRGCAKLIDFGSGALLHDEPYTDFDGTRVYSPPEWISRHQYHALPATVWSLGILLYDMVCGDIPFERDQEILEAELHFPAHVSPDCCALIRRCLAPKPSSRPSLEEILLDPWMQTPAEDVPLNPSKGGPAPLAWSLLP

| IC50 (Pim 2) | EC50 [1] | IC50 (Pim 1) | IC50 (Pim 3) | SMILES |
| --- | --- | --- | --- | --- |
| 2.54 nM | 36 nM | 0.06 nM | 0.88 nM | COC(=O)c1cc(F)c(-c2nc(C(=O)Nc3cnccc3N3C[C@@H](N)[C@H](O)[C@@H](C)C3)ccc2F)c(F)c1 [Example 215, methyl 4-(6-((4-((3R,4R,5S)-3-amino-4-hydroxy-5-methylpiperidin-1-yl)pyridin-3-yl)carbamoyl)-3-fluoropyridin-2-yl)-3,5-difluorobenzoate] |
| 1.62 nM | 182 nM | 0.01 nM | 0.48 nM | COCCCOc1cc(F)c(-c2nc(C(=O)Nc3cnccc3[C@@H]3C[C@H](C)C[C@H](N)C3)ccc2F)c(F)c1 [Example 176, N-(4-((1R,3S,5S)-3-amino-5-methylcyclohexyl)pyridin-3-yl)-6-(2,6-difluoro-4-(3-methoxypropoxy)phenyl)-5-fluoropicolinamide] |
| 2.43 nM | 166 nM | 0.04 nM | 1.33 nM | CCOCc1cc(F)c(-c2nc(C(=O)Nc3cnccc3[C@H]3C[C@@H](N)[C@H](O)[C@@H](C)C3)ccc2F)c(F)c1 [Example 83, N-(4-((1R,3R,4R,5S)-3-amino-4-hydroxy-5-methylcyclohexyl)pyridin-3-yl)-6-(4-(ethoxymethyl)-2,6-difluorophenyl)-5-fluoropicolinamide] |
| 1.38 nM | 40 nM | 0.03 nM | 0.53 nM | C[C@H]1C[C@@H](c2ccncc2NC(=O)c2nc(-c3c(F)cc(C4COC4)cc3F)c(F)cc2N)C[C@@H](N)[C@@H]1O [Example 98, 3-amino-N-(4-((1R,3R,4R,5S)-3-amino-4-hydroxy-5-methylcyclohexyl)pyridin-3-yl)-6-(2,6-difluoro-4-(oxetan-3-yl)phenyl)-5-fluoropicolinamide] |
| 1 nM | 47 nM | 0.02 nM | 0.52 nM | C[C@@H]1C[C@H](N)C[C@H](c2ccncc2NC(=O)c2ccc(F)c(-c3c(F)cc(C4(O)CCC4)cc3F)n2)C1 [Example 61, N-(4-((1R,3S,5S)-3-amino-5-methylcyclohexyl)pyridin-3-yl)-6-(2,6-difluoro-4-(1-hydroxycyclobutyl)phenyl)-5-fluoropicolinamide] |
| 0.33 nM | 98 nM | 0.01 nM | 0.17 nM | C[C@H]1CN(c2ccncc2NC(=O)c2ccc(F)c(-c3c(F)cc(OCC(F)(F)F)cc3F)n2)C[C@@H](N)[C@@H]1O [Example 198, N-(4-((3R,4R,5S)-3-amino-4-hydroxy-5-methylpiperidin-1-yl)pyridin-3-yl)-6-(2,6-difluoro-4-(2,2,2-trifluoroethoxy)phenyl)-5-fluoropicolinamide] |
| 2.76 nM | 246 nM | 0.02 nM | 1.37 nM | C[C@@H]1C[C@H](N)C[C@H](c2ccncc2NC(=O)c2ccc(F)c(-c3c(F)cc(OCC(F)(F)F)cc3F)n2)C1 [Example 196, N-(4-((1R,3S,5S)-3-amino-5-methylcyclohexyl)pyridin-3-yl)-6-(2,6-difluoro-4-(2,2,2-trifluoroethoxy)phenyl)-5-fluoropicolinamide] |
| 14.2 nM | 181 nM | 0.25 nM | 16 nM | C[C@H]1C[C@@H](c2ccncc2NC(=O)c2ccc(F)c(-c3c(F)cc4c(c3F)OCC[C@]4(C)O)n2)C[C@@H](N)[C@@H]1O [Example 237, N-(4-((1R,3R,4R,5S)-3-amino-4-hydroxy-5-methylcyclohexyl)pyridin-3-yl)-6-((S)-6,8-difluoro-4-hydroxy-4-methylchroman-7-yl)-5-fluoropicolinamide] |
| 0.64 nM | 8 nM | 0.01 nM | 0.14 nM | C[C@@H]1C[C@H](N)C[C@H](c2ccncc2NC(=O)c2nc(-c3c(F)cc(C4(O)CCC4)cc3F)c(F)cc2N)C1 [Example 220, 3-amino-N-(4-((1R,3S,5S)-3-amino-5-methylcyclohexyl)pyridin-3-yl)-6-(2,6-difluoro-4-(1-hydroxycyclobutyl)phenyl)-5-fluoropicolinamide] |
| 1.82 nM | 100 nM | 0.03 nM | 0.96 nM | CC(C)Oc1cc(F)c(-c2nc(C(=O)Nc3cnccc3[C@H]3C[C@@H](N)[C@@H](O)[C@@H](C)C3)ccc2F)c(F)c1 [Example 125, N-(4-((1R,3R,4S,5S)-3-amino-4-hydroxy-5-methylcyclohexyl)pyridin-3-yl)-6-(2,6-difluoro-4-isopropoxyphenyl)-5-fluoropicolinamide] |
| 1.09 nM | 7 nM | 0.03 nM | 0.36 nM | C[C@H]1CN(c2ccncc2NC(=O)c2ccc(F)c(-c3c(F)cc(CCO)cc3F)n2)C[C@@H](N)[C@@H]1O [Example 35, N-(4-((3R,4R,5S)-3-amino-4-hydroxy-5-methylpiperidin-1-yl)pyridin-3-yl)-6-(2,6-difluoro-4-(2-hydroxyethyl)phenyl)-5-fluoropicolinamide] |
| 11.4 nM | 186 nM | 0.07 nM | 2.25 nM | C[C@H]1C[C@@H](c2ccncc2NC(=O)c2ccc(F)c(-c3c(F)ccc(OCCO)c3F)n2)C[C@@H](N)[C@@H]1O [Example 30, N-(4-((1R,3R,4R,5S)-3-amino-4-hydroxy-5-methylcyclohexyl)pyridin-3-yl)-6-(2,6-difluoro-3-(2-hydroxyethoxy)phenyl)-5-fluoropicolinamide] |
| 2.21 nM | 48 nM | 0.02 nM | 0.97 nM | C[C@@H]1C[C@H](N)C[C@H](c2ccncc2NC(=O)c2ccc(F)c(-c3c(F)cc(OC4CCOC4)cc3F)n2)C1 (stereo in doubt) [Example 71, N-(4-((1R,3S,5S)-3-amino-5-methylcyclohexyl)pyridin-3-yl)-6-(2,6-difluoro-4-((R)-tetrahydrofuran-3-yloxy)phenyl)-5-fluoropicolinamide] |
| 0.57 nM | 10 nM | 0.01 nM | 0.12 nM | C[C@H]1CN(c2ccncc2NC(=O)c2ccc(F)c(-c3c(F)cc(C4CCOCC4)cc3F)n2)C[C@@H](N)[C@@H]1O [Example 99, N-(4-((3R,4R,5S)-3-amino-4-hydroxy-5-methylpiperidin-1-yl)pyridin-3-yl)-6-(2,6-difluoro-4-(tetrahydro-2H-pyran-4-yl)phenyl)-5-fluoropicolinamide] |
| 1.84 nM | 48 nM | 0.02 nM | 1.12 nM | C[C@@H]1C[C@H](N)C[C@H](c2ccncc2NC(=O)c2ccc(F)c(-c3c(F)cc(O[C@@H]4CCCOC4)cc3F)n2)C1 [Example 77, N-(4-((1R,3S,5S)-3-amino-5-methylcyclohexyl)pyridin-3-yl)-6-(2,6-difluoro-4-((R)-tetrahydro-2H-pyran-3-yloxy)phenyl)-5-fluoropicolinamide] |
| 0.42 nM | 14 nM | 0.01 nM | 0.21 nM | CCOCc1cc(F)c(-c2nc(C(=O)Nc3cnccc3[C@@H]3C[C@H](C)C[C@H](N)C3)ccc2F)c(F)c1 [Example 81, N-(4-((1R,3S,5S)-3-amino-5-methylcyclohexyl)pyridin-3-yl)-6-(4-(ethoxymethyl)-2,6-difluorophenyl)-5-fluoropicolinamide] |
| 1.44 nM | 25 nM | 0.02 nM | 0.93 nM | COC1(c2cc(F)c(-c3nc(C(=O)Nc4cnccc4[C@H]4C[C@@H](N)[C@H](O)[C@@H](C)C4)c(N)cc3F)c(F)c2)COC1 [Example 91, 3-amino-N-(4-((1R,3R,4R,5S)-3-amino-4-hydroxy-5-methylcyclohexyl)pyridin-3-yl)-6-(2,6-difluoro-4-(3-methoxyoxetan-3-yl)phenyl)-5-fluoropicolinamide] |
| 0.71 nM | 9 nM | 0.01 nM | 0.22 nM | C[C@H]1CN(c2ccncc2NC(=O)c2ccc(F)c(-c3c(F)cc(C4(O)CCC4)cc3F)n2)C[C@@H](N)[C@@H]1O [Example 76, N-(4-((3R,4R,5S)-3-amino-4-hydroxy-5-methylpiperidin-1-yl)pyridin-3-yl)-6-(2,6-difluoro-4-(1-hydroxycyclobutyl)phenyl)-5-fluoropicolinamide] |
| 0.81 nM | 23 nM | 0.01 nM | 0.35 nM | Cc1cc(F)c(-c2nc(C(=O)Nc3cnccc3[C@@H]3C[C@H](C)C[C@H](N)C3)c(N)cc2F)c(F)c1 [Example 222, 3-amino-N-(4-((1R,3S,5S)-3-amino-5-methylcyclohexyl)pyridin-3-yl)-6-(2,6-difluoro-4-methylphenyl)-5-fluoropicolinamide] |
| 3.26 nM | 402 nM | 0.05 nM | 2.9 nM | C[C@@H]1C[C@H](N)C[C@H](c2ccncc2NC(=O)c2cccc(-c3c(F)cc(C4(F)CCOCC4)cc3F)n2)C1 [Example 190, N-(4-((1R,3S,5S)-3-amino-5-methylcyclohexyl)pyridin-3-yl)-6-(2,6-difluoro-4-(4-fluorotetrahydro-2H-pyran-4-yl)phenyl)picolinamide] |
| 2.58 nM | 26 nM | 0.03 nM | 0.82 nM | C[C@@H]1C[C@H](N)C[C@H](c2ccncc2NC(=O)c2ccc(F)c(-c3c(F)cc(OCCO)cc3F)n2)C1 [Example 229, N-(4-((1R,3S,5S)-3-amino-5-methylcyclohexyl)pyridin-3-yl)-6-(2,6-difluoro-4-(2-hydroxyethoxy)phenyl)-5-fluoropicolinamide] |
| 1.18 nM | 1490 nM | 0.02 nM | 0.59 nM | C[C@H]1C[C@@H](c2ccncc2NC(=O)c2ccc(F)c(-c3c(F)cc(C4CCS(=O)(=O)CC4)cc3F)n2)C[C@@H](N)[C@@H]1O [Example 203, N-(4-((1R,3R,4R,5S)-3-amino-4-hydroxy-5-methylcyclohexyl)pyridin-3-yl)-6-(4-(1,1-dioxidotetrahydro-2H-thiopyran-4-yl)-2,6-difluorophenyl)-5-fluoropicolinamide] |
